Measured values published in PubChem BioAssay (NCI).
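All cell lines were grown in 96-well plates and treated with compound for 48 hours. TGI denotes the concentration required for complete inhibition of growth.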

Assays:
Experiment in all cases: NCI tumour cell line growth inhibition, 48 h
[1] = system: NCI-H460 lung
[2] = system: NCI-H23 lung
[3] = system: A549 NSCLC
[4] = system: A498 renal
[5] = system: CAKI-1 renal
[6] = system: SF-295 CNS
[7] = system: RXF 393 renal
[8] = system: DU-145 prostate
[9] = system: OVCAR-3 ovarian
[10] = system: NCI-H522 lung
[11] = system: T-47D breast
[12] = system: HCT-116 colon
[13] = system: 786-0 renal
[14] = system: SW-620 colon
[15] = system: IGROV1 ovarian
[16] = system: KM12 colon
[17] = system: HT29 colon
[18] = system: MOLT-4 leukemia
[19] = system: MALME-3M melanoma
[20] = system: SN12C renal
[21] = system: EKVX NSCLC
[22] = system: COLO 205 colon
[23] = system: HCC-2998 colon
[24] = system: SNB-75 CNS
[25] = system: CCRF-CEM leukemia
[26] = system: U251 CNS
[27] = system: TK-10 renal
[28] = system: ACHN renal
[29] = system: SK-MEL-5 melanoma
[30] = system: RPMI-8226 leukemia
[31] = system: SF-539 CNS
[32] = system: SNB-19 CNS
[33] = system: HOP-92 NSCLC
[34] = system: UACC-62 melanoma
[35] = system: HS 578T breast
[36] = system: SK-MEL-28 melanoma
[37] = system: LOX IMVI melanoma
[38] = system: SF-268 CNS
[39] = system: SK-OV-3 ovarian
[40] = system: MDA-MB-231 breast
[41] = system: PC-3 prostate
[42] = system: NCI/ADR-RES ovarian
[43] = system: UO-31 renal
[44] = system: SK-MEL-2 melanoma
[45] = system: OVCAR-5 ovarian
[46] = system: NCI-H226 lung
[47] = system: M14 melanoma
[48] = system: HL-60(TB) leukemia
[49] = system: HCT-15 colon
[50] = system: HOP-62 NSCLC
[51] = system: OVCAR-4 ovarian
[52] = system: MDA-N
[53] = system: SR leukemia
[54] = system: MDA-MB-435
[55] = system: K-562 leukemia
[56] = system: UACC-257 melanoma
[57] = system: MCF7 breast
[58] = system: OVCAR-8 ovarian
[59] = system: BT-549 breast

CC1(C)CC(=O)C2=C(C1)OC1=C(CC(C)(C)CC1=O)C2c1ccccc1[N+](=O)[O-] (centres undefined)
TGI [1]: > 100 µM | TGI [2]: > 100 µM | TGI [3]: > 100 µM | TGI [4]: > 100 µM | TGI [5]: > 100 µM | TGI [6]: > 100 µM | TGI [7]: > 100 µM | TGI [8]: > 100 µM | TGI [9]: > 100 µM | TGI [10]: > 100 µM | TGI [11]: > 100 µM | TGI [12]: > 100 µM | TGI [13]: > 100 µM | TGI [14]: > 100 µM | TGI [15]: > 100 µM | TGI [16]: > 100 µM | TGI [17]: > 100 µM | TGI [18]: > 100 µM | TGI [19]: > 100 µM | TGI [20]: > 100 µM | TGI [21]: > 100 µM | TGI [22]: > 100 µM | TGI [23]: > 100 µM | TGI [24]: > 100 µM | TGI [25]: > 100 µM | TGI [26]: > 100 µM | TGI [27]: > 100 µM | TGI [28]: > 100 µM | TGI [29]: > 100 µM | TGI [30]: > 100 µM | TGI [31]: > 100 µM | TGI [32]: > 100 µM | TGI [33]: > 100 µM | TGI [34]: > 100 µM | TGI [35]: > 100 µM | TGI [36]: > 100 µM | TGI [37]: > 100 µM | TGI [38]: > 100 µM | TGI [39]: > 100 µM | TGI [40]: > 100 µM | TGI [41]: > 100 µM | TGI [42]: > 100 µM | TGI [43]: 3.69 µM | TGI [44]: > 100 µM | TGI [45]: > 100 µM | TGI [46]: > 100 µM | TGI [47]: > 100 µM | TGI [48]: > 100 µM | TGI [49]: > 100 µM | TGI [50]: > 100 µM | TGI [51]: > 100 µM | TGI [52]: > 100 µM | TGI [53]: > 100 µM | TGI [54]: > 100 µM | TGI [55]: > 100 µM

COc1cc(N(Cc2ccc3oc(=O)c(-c4ccccc4)nc3c2)Cc2ccc3oc(=O)c(-c4ccccc4)nc3c2)cc(OC)c1OC
TGI [1]: > 10 µM | TGI [2]: > 10 µM | TGI [3]: > 10 µM | TGI [5]: > 10 µM | TGI [6]: > 10 µM | TGI [7]: > 10 µM | TGI [8]: > 10 µM | TGI [9]: > 10 µM | TGI [10]: > 10 µM | TGI [11]: > 10 µM | TGI [12]: > 10 µM | TGI [13]: > 10 µM | TGI [14]: > 10 µM | TGI [15]: > 10 µM | TGI [56]: > 10 µM | TGI [16]: > 10 µM | TGI [17]: > 10 µM | TGI [18]: > 10 µM | TGI [20]: > 10 µM | TGI [21]: > 10 µM | TGI [57]: > 10 µM | TGI [22]: > 10 µM | TGI [23]: > 10 µM | TGI [24]: > 10 µM | TGI [25]: > 10 µM | TGI [26]: > 10 µM | TGI [27]: > 10 µM | TGI [28]: > 10 µM | TGI [29]: > 10 µM | TGI [30]: > 10 µM | TGI [31]: > 10 µM | TGI [32]: > 10 µM | TGI [33]: > 10 µM | TGI [34]: > 10 µM | TGI [35]: > 10 µM | TGI [36]: > 10 µM | TGI [37]: > 10 µM | TGI [38]: > 10 µM | TGI [39]: > 10 µM | TGI [40]: > 10 µM | TGI [41]: > 10 µM | TGI [42]: > 10 µM | TGI [43]: > 10 µM | TGI [58]: > 10 µM | TGI [44]: > 10 µM | TGI [45]: > 10 µM | TGI [46]: > 10 µM | TGI [47]: > 10 µM | TGI [48]: > 10 µM | TGI [49]: > 10 µM | TGI [50]: > 10 µM | TGI [51]: > 10 µM | TGI [52]: > 10 µM | TGI [53]: > 10 µM | TGI [54]: > 10 µM | TGI [55]: > 10 µM

Cc1ccc(S(=O)(=O)NC(CN)C(=O)O)cc1 (centres undefined)
TGI [1]: > 100 µM | TGI [2]: > 100 µM | TGI [3]: > 100 µM | TGI [4]: > 100 µM | TGI [5]: > 100 µM | TGI [6]: > 100 µM | TGI [59]: > 100 µM | TGI [7]: > 100 µM | TGI [8]: > 100 µM | TGI [9]: > 100 µM | TGI [10]: > 100 µM | TGI [11]: > 100 µM | TGI [12]: > 100 µM | TGI [13]: > 100 µM | TGI [14]: > 100 µM | TGI [15]: > 100 µM | TGI [56]: > 100 µM | TGI [16]: > 100 µM | TGI [17]: > 100 µM | TGI [18]: > 100 µM | TGI [19]: > 100 µM | TGI [21]: > 100 µM | TGI [57]: > 100 µM | TGI [22]: > 100 µM | TGI [24]: > 100 µM | TGI [26]: > 100 µM | TGI [27]: > 100 µM | TGI [28]: > 100 µM | TGI [29]: > 100 µM | TGI [30]: > 100 µM | TGI [31]: > 100 µM | TGI [32]: > 100 µM | TGI [33]: > 100 µM | TGI [34]: > 100 µM | TGI [35]: > 100 µM | TGI [36]: > 100 µM | TGI [37]: > 100 µM | TGI [38]: > 100 µM | TGI [39]: > 100 µM | TGI [40]: > 100 µM | TGI [41]: > 100 µM | TGI [42]: > 100 µM | TGI [43]: > 100 µM | TGI [58]: > 100 µM | TGI [44]: > 100 µM | TGI [45]: > 100 µM | TGI [46]: > 100 µM | TGI [47]: > 100 µM | TGI [49]: > 100 µM | TGI [50]: > 100 µM | TGI [51]: > 100 µM | TGI [52]: > 100 µM | TGI [54]: > 100 µM
